Results taken from PubChem BioAssay (NCI).
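Method: 48-hour compound exposure of cells in 96-well plates, five concentrations, linear interpolation of endpoints. GI50 is the concentration that inhibits growth by half. TGI is the concentration that stops growth completely.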

Key:
Assay in all cases: inhibition of tumour cell growth, NCI panel, 48 h
[1] = tested on: 786-0 renal
[2] = tested on: A549 NSCLC
[3] = tested on: ACHN renal
[4] = tested on: BT-549 breast
[5] = tested on: CAKI-1 renal
[6] = tested on: CCRF-CEM leukemia
[7] = tested on: COLO 205 colon
[8] = tested on: DU-145 prostate
[9] = tested on: EKVX NSCLC
[10] = tested on: HCT-15 colon
[11] = tested on: HL-60(TB) leukemia
[12] = tested on: HOP-62 NSCLC
[13] = tested on: HOP-92 NSCLC
[14] = tested on: HS 578T breast
[15] = tested on: HT29 colon
[16] = tested on: IGROV1 ovarian
[17] = tested on: K-562 leukemia
[18] = tested on: KM12 colon
[19] = tested on: LOX IMVI melanoma
[20] = tested on: M14 melanoma
[21] = tested on: MALME-3M melanoma
[22] = tested on: MCF7 breast
[23] = tested on: MDA-MB-231 breast
[24] = tested on: MDA-MB-435
[25] = tested on: MOLT-4 leukemia
[26] = tested on: NCI-H226 lung
[27] = tested on: NCI-H23 lung
[28] = tested on: NCI-H460 lung
[29] = tested on: NCI-H522 lung
[30] = tested on: NCI/ADR-RES ovarian
[31] = tested on: OVCAR-3 ovarian
[32] = tested on: OVCAR-4 ovarian
[33] = tested on: OVCAR-5 ovarian
[34] = tested on: OVCAR-8 ovarian
[35] = tested on: PC-3 prostate
[36] = tested on: RPMI-8226 leukemia
[37] = tested on: RXF 393 renal
[38] = tested on: SF-268 CNS
[39] = tested on: SF-295 CNS
[40] = tested on: SF-539 CNS
[41] = tested on: SK-MEL-2 melanoma
[42] = tested on: SK-MEL-28 melanoma
[43] = tested on: SK-MEL-5 melanoma
[44] = tested on: SK-OV-3 ovarian
[45] = tested on: SN12C renal
[46] = tested on: SNB-19 CNS
[47] = tested on: SNB-75 CNS
[48] = tested on: SR leukemia
[49] = tested on: SW-620 colon
[50] = tested on: T-47D breast
[51] = tested on: TK-10 renal
[52] = tested on: U251 CNS
[53] = tested on: UACC-257 melanoma
[54] = tested on: UACC-62 melanoma
[55] = tested on: UO-31 renal
[56] = tested on: A498 renal
[57] = tested on: HCC-2998 colon

COC(=O)C1=C(C(=O)OC)SC(=C(Cl)C(=S)Oc2ccccc2N)S1
GI50 [1]: 12.3 µM | TGI [1]: > 50 µM | GI50 [2]: 18.1 µM | TGI [2]: > 50 µM | GI50 [3]: 15 µM | TGI [3]: > 50 µM | GI50 [4]: 10.2 µM | TGI [4]: 21.6 µM | GI50 [5]: 13.5 µM | TGI [5]: 40.7 µM | GI50 [6]: > 50 µM | TGI [6]: > 50 µM | GI50 [7]: 26.7 µM | TGI [7]: > 50 µM | GI50 [8]: 19.8 µM | TGI [8]: > 50 µM | GI50 [9]: 46.5 µM | TGI [9]: > 50 µM | GI50 [10]: 16.4 µM | TGI [10]: > 50 µM | GI50 [11]: 14.5 µM | TGI [11]: > 50 µM | GI50 [12]: 20.1 µM | TGI [12]: 42.1 µM | GI50 [13]: 37.3 µM | TGI [13]: > 50 µM | GI50 [14]: 15.6 µM | TGI [14]: 34.2 µM | GI50 [15]: 33.7 µM | TGI [15]: > 50 µM | GI50 [16]: 3.79 µM | TGI [16]: 14.5 µM | GI50 [17]: 15.8 µM | TGI [17]: > 50 µM | GI50 [18]: > 50 µM | TGI [18]: > 50 µM | GI50 [19]: 9.16 µM | TGI [19]: 22.3 µM | GI50 [20]: 10.8 µM | TGI [20]: 29.4 µM | GI50 [21]: 18.6 µM | TGI [21]: > 50 µM | GI50 [22]: 5.95 µM | TGI [22]: 17.3 µM | GI50 [23]: 28 µM | TGI [23]: > 50 µM | GI50 [24]: 8.94 µM | TGI [24]: 17 µM | GI50 [25]: 25 µM | TGI [25]: > 50 µM | GI50 [26]: 20.5 µM | TGI [26]: > 50 µM | GI50 [27]: 10.6 µM | TGI [27]: > 50 µM | GI50 [28]: 13.4 µM | TGI [28]: > 50 µM | GI50 [29]: 10.4 µM | TGI [29]: 31.3 µM | GI50 [30]: 13.9 µM | TGI [30]: 37.1 µM | GI50 [31]: 10.8 µM | TGI [31]: 36.1 µM | GI50 [32]: > 50 µM | TGI [32]: > 50 µM | GI50 [33]: 37 µM | TGI [33]: > 50 µM | GI50 [34]: 18.7 µM | TGI [34]: > 50 µM | GI50 [35]: 17.9 µM | TGI [35]: > 50 µM | GI50 [36]: 17.9 µM | TGI [36]: > 50 µM | GI50 [37]: 8.38 µM | TGI [37]: > 50 µM | GI50 [38]: 15.9 µM | TGI [38]: > 50 µM | GI50 [39]: 13.7 µM | TGI [39]: 41.1 µM | GI50 [40]: 13.4 µM | TGI [40]: 35.5 µM | GI50 [41]: 10.2 µM | TGI [41]: 26.1 µM | GI50 [42]: > 50 µM | TGI [42]: > 50 µM | GI50 [43]: 8.43 µM | TGI [43]: 17.7 µM | GI50 [44]: 22.3 µM | TGI [44]: > 50 µM | GI50 [45]: 18.2 µM | TGI [45]: > 50 µM | GI50 [46]: 25.8 µM | TGI [46]: > 50 µM | GI50 [47]: 35.1 µM | TGI [47]: > 50 µM | GI50 [48]: 12.9 µM | TGI [48]: 35 µM | GI50 [49]: 24.2 µM | TGI [49]: > 50 µM | GI50 [50]: > 50 µM | TGI [50]: > 50 µM | GI50 [51]: 49.5 µM | TGI [51]: > 50 µM | GI50 [52]: 16.2 µM | TGI [52]: > 50 µM | GI50 [53]: 9.44 µM | TGI [53]: 18.8 µM | GI50 [54]: 16.5 µM | TGI [54]: > 50 µM | GI50 [55]: 10.6 µM | TGI [55]: 35.6 µM

ClC(Cl)c1nc(-c2ccccc2)n2nc(-c3ccccc3)cc2n1
GI50 [1]: 8.7 µM | TGI [1]: > 100 µM | GI50 [56]: 1.31 µM | TGI [56]: 2.76 µM | GI50 [3]: 0.572 µM | TGI [3]: 3.1 µM | GI50 [4]: > 100 µM | TGI [4]: > 100 µM | GI50 [5]: 1.6 µM | TGI [5]: 7.13 µM | GI50 [6]: > 100 µM | TGI [6]: > 100 µM | GI50 [7]: 0.778 µM | TGI [7]: 3.42 µM | GI50 [9]: 1.94 µM | TGI [9]: 5.75 µM | GI50 [57]: 0.573 µM | TGI [57]: 2.05 µM | GI50 [11]: 1.65 µM | TGI [11]: 7.69 µM | GI50 [12]: 0.586 µM | TGI [12]: 5.6 µM | GI50 [13]: 1.41 µM | TGI [13]: 5.9 µM | GI50 [14]: 1.91 µM | TGI [14]: 6.46 µM | GI50 [15]: 0.442 µM | TGI [15]: > 100 µM | GI50 [16]: 3.06 µM | TGI [16]: > 100 µM | GI50 [17]: 2.59 µM | TGI [17]: > 100 µM | GI50 [18]: 0.696 µM | TGI [18]: 2.38 µM | GI50 [19]: > 100 µM | TGI [19]: > 100 µM | GI50 [21]: 3.3 µM | TGI [21]: > 100 µM | GI50 [22]: 1.08 µM | TGI [22]: > 100 µM | GI50 [25]: 3.33 µM | TGI [25]: > 100 µM | GI50 [26]: 48 µM | TGI [26]: > 100 µM | GI50 [27]: 1.42 µM | TGI [27]: 4.09 µM | GI50 [28]: 0.411 µM | TGI [28]: 1.87 µM | GI50 [29]: 3.63 µM | TGI [29]: > 100 µM | GI50 [31]: 1.04 µM | TGI [31]: 2.68 µM | GI50 [32]: 1.65 µM | TGI [32]: 5.64 µM | GI50 [33]: 2.31 µM | TGI [33]: 6.44 µM | GI50 [34]: 1.73 µM | TGI [34]: > 100 µM | GI50 [35]: 1.66 µM | TGI [35]: 4.73 µM | GI50 [37]: 0.533 µM | TGI [37]: 2.38 µM | GI50 [38]: 2.28 µM | TGI [38]: > 100 µM | GI50 [39]: 1.83 µM | TGI [39]: 5.66 µM | GI50 [40]: 1.78 µM | TGI [40]: 5.57 µM | GI50 [41]: 31.6 µM | TGI [41]: > 100 µM | GI50 [42]: 1.65 µM | TGI [42]: 3.1 µM | GI50 [43]: > 100 µM | TGI [43]: > 100 µM | GI50 [44]: 2.7 µM | TGI [44]: 9.61 µM | GI50 [45]: > 100 µM | TGI [45]: > 100 µM | GI50 [46]: 1.55 µM | TGI [46]: 6.85 µM | GI50 [47]: 1.12 µM | TGI [47]: 5.24 µM | GI50 [48]: 1.02 µM | TGI [48]: 5.61 µM | GI50 [50]: 2.13 µM | TGI [50]: > 100 µM | GI50 [51]: 1.87 µM | TGI [51]: 5.7 µM | GI50 [52]: 0.758 µM | TGI [52]: 6.44 µM | GI50 [53]: 2.1 µM | TGI [53]: 5.19 µM | GI50 [54]: 3.5 µM | TGI [54]: > 100 µM
